What was measured:
murine SR-BI = molecular target: T1, murine SR-BI (Mus musculus, UniProt Q61009); test: Compound reversibility, cellular uptake of DiI from DiI-HDL; assay type: cell-based; details: 1 hr preincubation, then 0 or 4 hr incubation in the absence of compound; read-out: IC50, reversibility test (DiI uptake)
T1 construct: expressed in transfected cells; host or cells: ldlA[mSR-BI]; (CHO ldlA7 derivative lacking the LDL receptor)
T1 sequence (Q61009 1-509): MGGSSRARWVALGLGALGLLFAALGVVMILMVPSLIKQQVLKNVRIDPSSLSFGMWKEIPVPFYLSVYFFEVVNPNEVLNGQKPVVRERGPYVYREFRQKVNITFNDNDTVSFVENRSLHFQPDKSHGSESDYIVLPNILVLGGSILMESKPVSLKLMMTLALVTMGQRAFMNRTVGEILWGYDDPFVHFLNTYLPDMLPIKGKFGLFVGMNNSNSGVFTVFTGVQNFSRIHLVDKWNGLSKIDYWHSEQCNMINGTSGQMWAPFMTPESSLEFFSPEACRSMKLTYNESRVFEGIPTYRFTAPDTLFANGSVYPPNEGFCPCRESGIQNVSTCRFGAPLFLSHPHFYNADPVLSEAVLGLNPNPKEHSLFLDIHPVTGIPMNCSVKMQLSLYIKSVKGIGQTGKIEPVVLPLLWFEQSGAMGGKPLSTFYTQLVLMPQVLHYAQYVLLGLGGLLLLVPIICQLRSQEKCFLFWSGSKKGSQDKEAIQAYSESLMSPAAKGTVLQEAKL
Description: Compound reversibility was tested by measuring the cellular uptake of DiI from DiI-HDL (all incubations at 37° C.) in ldlA7 cells that were stably transfected with cDNA encoding murine SR-BI. On day 0, 50,000 cells were plated in 96-well dishes per well (Costar, black with clear, flat bottom) in Ham's F12 medium containing 2 mM L-glutamine, 50 units/mL penicillin per 50 μg/mL streptomycin (medium A) supplemented with 5% (vol/vol) FBS and 0.25 mg/mL G418 (medium B). On day 2, the cells were washed twice with prewarmed (37° C.) medium A. The cells were then preincubated with the tested compounds in 200 μL per well of medium A plus 0.5% (wt/vol) BSA plus 0.5% (vol/vol) DMSO (medium C) for 1 hr. The 1 hr preincubation was followed by either a 0 or 4 hr incubation in medium C in the absence of compound. The cells were then incubated in medium C (200 μL per well) containing 10 μg protein per mL of DiI-HDL at 37° C. for 2 h to measure DiI uptake. […] Then 50 μL PBS was added and fluorescence measurements made using a Molecular Devices SpectraMax fluorescence plate reader (excitation at 515 nm, emission at 575 nm, bottom read mode). DiI uptake was also measured in the presence of a 40-fold excess of unlabeled HDL to determine nonspecific (SR-BI-independent) uptake.

[1] = test system: endocytosis of transferrin; test: Transferrin endocytosis assay; assay type: cell-based
Source text: Transferrin Endocytosis Assay (SA 3: AID No. 602134) This assay measures the endocytosis of an independent ligand, transferrin, which is not taken up via SR-BI but by clathrin-mediated endocytosis. This assay provides a measure of the selectivity of the inhibitors. Alexa-594-labeled transferrin is taken into the cell via endocytosis and localization of labeled transferrin was quantitated in the various intracellular compartments. […] Inhibitors of interest should act selectively at SR-BI and should have no activity in this assay. Cells were pre-treated with compound for 3 hours and then treated with the Alexa-594 transferrin reagent for 30 minutes (Catalog No. T-13343; Invitrogen) in serum-free media. Plates of cells were then placed onto ice, washed with ice cold PBS, and then fixed with 4% paraformaldehyde. In addition, the nuclei were stained with 300 nM 4′,6-diamidino-2-phenylindole (DAPI) (Catalog No. 21490; Invitrogen). The cells were imaged with the Molecular Devices IXM microscope (FIG. 22). Translocation measurements were performed using MetaExpress software and normalized for cell number.

SR-BI = molecular target: T2, SR-BI (Mus musculus, UniProt Q61009); test: Radioactive HDL uptake assay (wild type SR-BI); assay type: cell-based, murine; parameters: expressed in transfected cells; host or cells: ldlA[mSR-BI]; (CHO ldlA7 derivative lacking the LDL receptor); details: [3H]cholesteryl ester HDL; read-out: average IC50, radiolabeled version of the uptake assay
T2 sequence (Q61009 1-509): T1 sequence (Q61009 1-509)
Source text: Radioactive HDL Uptake Assay (wild type SR-BI) (SA 8: AID No. 588836)
The goal of this assay is to verify compounds that disrupt the lipid uptake from HDL particles to SR-BI scavenger receptor-expressing cells using an alternative means of labeling HDL particles and avoiding any type of fluorescence measurement. To measure this binding event, HDL particles are labeled with [^3H]cholesteryl ester and added to mSR-BI expressing cells. Cells take up the radioactive lipids from HDL via SR-BI in 2 to 3 hours. After significant uptake of the lipids from HDL, the radiolabel can be detected by liquid scintillation counting. The level of radioactivity correlates with the amount of HDL lipid uptake. The uptake of lipid from the HDL particles particles can be inhibited by the compound BLT-1 or when co-treated with an excess of unlabeled HDL. The ldlA[mSR-BI]-expressing cells utilized in the assay are from a Chinese Hamster Ovary (CHO) cell line lacking expression of the LDL receptors and overexpressing the scavenger receptor, SR-BI. Inhibitors of SR-BI and HDL lipid uptake will have a reduction in liquid scintillation counts.

With `COCC(=O)N1CCc2cc(-c3csc(NC(=O)c4cc(OC)cc(OC)c4)n3)ccc21` [Compound 137, 3,5-Dimethoxy-N-(4-(1-(2-methoxyacetyl)indolin-5-yl)thiazol-2-yl)benzamide] the IC50 (murine SR-BI) was 315 nM, the “effect on the endocytosis of transferrin” value ([1]; at concentrations up to 35 μM) was “no effect on the endocytosis of transferrin” and the “endocytosis of transferrin” value ([1]; listed as ML278) was “not grossly perturbing cellular membrane trafficking pathways”. The “endocytosis of transferrin” value ([1]; listed as Probe 278) was “did not inhibit endocytosis of transferring”, the “endocytosis of transferrin” value ([1]; listed as compound of Formula (II)) was “does not inhibit endocytosis of transferrin” and the IC50 (SR-BI) was 1000 nM.

From patent US9951055B2, “Thiazole-based inhibitors of scavenger receptor BI” (THE BROAD INSTITUTE, INC., priority 2012, dated 2018)
